Laboratory results: US10821115B2, “Compounds that inhibit Mcl-1 protein” (priority 2017, dated 2020)

Molecular target: recombinant human Mcl-1 (residues 171-327) / Bim interaction (Homo sapiens (Human), UniProt Q07820)
Test: biochemical
Assay type: binding
Conditions: 0.1 nM Mcl-1(171-327), 0.05 nM biotin-Bim (51-76); read-out: Mcl-1 HTRF IC50

Chain of recombinant human Mcl-1 (residues 171-327) / Bim interaction (Q07820 171-327): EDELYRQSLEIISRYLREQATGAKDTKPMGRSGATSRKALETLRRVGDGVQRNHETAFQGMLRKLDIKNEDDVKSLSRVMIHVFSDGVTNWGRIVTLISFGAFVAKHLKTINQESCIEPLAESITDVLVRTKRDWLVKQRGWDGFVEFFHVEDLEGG

Structure (SMILES) | IC50 [pM]
CCO[C@@]1(CN2CCN3CCOC[C@@H]3C2)/C=C/C[C@H](C)[C@@H](C)S(=O)(=O)NC(=O)c2ccc3c(c2)N(C[C@@H]2CC[C@H]21)C[C@@]1(CCCc2ccccc21)CO3 [Example 105, (1S,3′R,6′R,7′S,8′E,11′S,12′R)-7′-ethoxy-7′-((9aS)-hexahydropyrazino[2,1-c][1,4]oxazin-8(1H)-ylmethyl)-11′,12′-dimethyl-3,4-dihydro-2H, 15′H-spiro[naphthalene-1,22′-[20]oxa[13]thia[1,14]diazatetracyclo[14.7.2.0-3,6˜.0˜19,24˜]pentacosa[8,16,18,24]tetraen]-15′-one 13′,13′-dioxide] | 423
C[C@@H]1[C@@H](C)C/C=C/[C@@]2(CN(C)CCO2)[C@@H]2CC[C@H]2CN2C[C@@]3(CCCc4cc(Cl)ccc43)COc3ccc(cc32)C(=O)NS1(=O)=O [Example 124, (1S,3′R,6′R,7′S,8′E, 11′S,12′R)-6-chloro-4″,11′,12′-trimethyl-3,4-dihydro-2H,15′H-dispiro[naphthalene-1,22′-[20]oxa[13]thia[1,14]diazatetracyclo[14.7.2.0-3,6˜.0˜19,24˜]pentacosa[8,16,18,24]tetraene-7′,2″-[1,4]oxazinan]-15′-one 13′,13′-dioxide] | 646
CC(C)N1CCO[C@]2(/C=C/C[C@H](C)[C@@H](C)S(=O)(=O)NC(=O)c3ccc4c(c3)N(C[C@@H]3CC[C@H]32)C[C@@]2(CCCc3cc(Cl)ccc32)CO4)C1 [Example 127, (1 S,3′R,6′R,7′S,8′E, 11′S,12′R)-6-chloro-11′,12′-dimethyl-4″-(1-methylethyl)-3,4-dihydro-2H,15′H-dispiro[naphthalene-1,22′-[20]oxa[13]thia[1,14]diazatetracyclo[14.7.2.0-3,6˜.0˜19,24˜]pentacosa[8,16,18,24]tetraene-7′,2″-[1,4]oxazinan]-15′-one 13′,13′-dioxide] | 395
C[C@@H]1[C@@H](C)C/C=C/[C@]2(CN(C)CCO2)[C@@H]2CC[C@H]2CN2C[C@@]3(CCCc4cc(Cl)ccc43)COc3ccc(cc32)C(=O)NS1(=O)=O [Example 130] | 920
C[C@@H]1[C@@H](C)C/C=C/[C@]2(CN3CCOC[C@@H]3CO2)[C@@H]2CC[C@H]2CN2C[C@@]3(CCCc4cc(Cl)ccc43)COc3ccc(cc32)C(=O)NS1(=O)=O [Example 131] | 249
C[C@@H]1CS(=O)(=O)NC(=O)c2ccc3c(c2)N(C[C@@H]2CC[C@H]2[C@](O)(CN2CCN4CCOC[C@@H]4C2)CC[C@@H]1C)C[C@@]1(CCCc2cc(Cl)ccc21)CO3 [Example 405, (1S,3′R,6′R,7′S,10′S,11′S)-6-chloro-7′-((9aS)-hexahydropyrazino[2,1-c][1,4]oxazin-8(1H)-ylmethyl)-7′-hydroxy-10′,11′-dimethyl-3,4-dihydro-2H, 15′H-spiro[naphthalene-1,22′-[20]oxa[13]thia[1,14]diazatetracyclo[14.7.2.0-3,6˜.0˜19,24˜]pentacosa[16,18,24]trien]-15′-one 13′,13′-dioxide] | 57
CCO[C@]1(CN2CCN(C(C)C)[C@H](C)C2)CCC[C@H](C)[C@@H](CCOC)S(=O)(=O)NC(=O)c2ccc3c(c2)N(C[C@@H]2CC[C@H]21)C[C@@]1(CCCc2cc(Cl)ccc21)CO3 [Example 519, (1S,3′R,6′R,7′R,11′S,12′R)-6-chloro-7′-ethoxy-12′-(2-methoxyethyl)-11′-methyl-7′-(((3R)-3-methyl-4-(2-propanyl)-1-piperazinyl)methyl)-3,4-dihydro-2H, 15′H-spiro[naphthalene-1,22′-[20]oxa[13]thia[1,14]diazatetracyclo[14.7.2.0-3,6˜.0˜19,24˜]pentacosa[16,18,24]trien]-15′-one 13′,13′-dioxide] | 157

Same assay, conditions: TR-FRET, Mcl-1(171-327) / biotin-Bim (51-76); read-out: Mcl-1 HTRF IC50

Structure (SMILES) | IC50 [pM]
CO[C@@]1(CO)/C=C/C[C@H](C)[C@@H](C)S(=O)(=O)NC(=O)c2ccc3c(c2)N(C[C@@H]2CC[C@H]21)C[C@@]1(CCCc2cc(Cl)ccc21)CO3 [Example 100001, (1 S,3′R,6′R,7′S, 8′E,11′S, 12′R)-6-chloro-7′-(hydroxymethyl)-7′-methoxy-11′,12′-dimethyl-3,4-dihydro-2H, 15′H-spiro[naphthalene-1,22′-[20]oxa[13]thia[1,14]diazatetracyclo[14.7.2.˜3,6˜.0˜19,24˜]pentacosa[8,16,18,24]tetraen]-15′-one 13′,13′-dioxide] | 55
O=C1NS(=O)(=O)CCCCC[C@](O)(CO)[C@@H]2CC[C@H]2CN2C[C@@]3(CCCc4cc(Cl)ccc43)COc3ccc1cc32 [Example 100021, (1S,3′R,6′R,7′R)-6-chloro-7′-hydroxy-7′-(hydroxymethyl)-3,4-dihydro-2H,15′H-spiro[naphthalene-1,22′-[20]oxa[13]thia[1,14]diazatetracyclo [14.7.2.0~3,6~.0~19,24~]pentacosa[16,18,24]trien]-15′-one 13′,13′-dioxide] | 1050
O=C1NS(=O)(=O)CCCCC[C@@](O)(CO)[C@@H]2CC[C@H]2CN2C[C@@]3(CCCc4cc(Cl)ccc43)COc3ccc1cc32 [Example 100022, (1S,3′R,6′R,7′S)-6-chloro-7′-hydroxy-7′-(hydroxymethyl)-3,4-dihydro-2H,15′H-spiro[naphthalene-1,22′-[20]oxa[13]thia[1,14]diazatetracyclo [14.7.2.0~3,6~.0~19,24~]pentacosa[16,18,24]trien]-15′-one 13′,13′-dioxide] | 861
C[C@]1(O)CCCCCS(=O)(=O)NC(=O)c2ccc3c(c2)N(C[C@@H]2CC[C@H]21)C[C@@]1(CCCc2cc(Cl)ccc21)CO3 [Example 100023, (1S,3′R,6′R,7′S)-6-chloro-7′-hydroxy-7′-methyl-3,4-dihydro-2H,15′H-spiro[naphthalene-1,22′-[20]oxa[13]thia[1,14]diazatetracyclo [14.7.2.0~3,6~.0~19,24~]pentacosa[16,18,24]trien]-15′-one 13′,13′-dioxide] | 3940
C[C@@]1(O)CCCCCS(=O)(=O)NC(=O)c2ccc3c(c2)N(C[C@@H]2CC[C@H]21)C[C@@]1(CCCc2cc(Cl)ccc21)CO3 [Example 100024, (1S,3′R,6′R,7′R)-6-chloro-7′-hydroxy-7′-methyl-3,4-dihydro-2H,15′H-spiro[naphthalene-1,22′-[20]oxa[13]thia[1,14]diazatetracyclo [14.7.2.0~3,6~.0~19,24~]pentacosa[16,18,24]trien]-15′-one 13′,13′-dioxide] | 6160
CC#C[C@]1(O)CCCCCS(=O)(=O)NC(=O)c2ccc3c(c2)N(C[C@@H]2CC[C@H]21)C[C@@]1(CCCc2cc(Cl)ccc21)CO3 [Example 100025, (1S,3′R,6′R,7′S)-6-chloro-7′-hydroxy-7′-(1-propyn-1-yl)-3,4-dihydro-2H,15′H-spiro[naphthalene-1,22′-[20]oxa[13]thia[1,14]diazatetracyclo [14.7.2.0~3,6~.0~19,24~]pentacosa[16,18,24]trien]-15′-one 13′,13′-dioxide] | 2350
CC#C[C@@]1(O)CCCCCS(=O)(=O)NC(=O)c2ccc3c(c2)N(C[C@@H]2CC[C@H]21)C[C@@]1(CCCc2cc(Cl)ccc21)CO3 [Example 100026, (1S,3′R,6′R,7′R)-6-chloro-7′-hydroxy-7′-(1-propyn-1-yl)-3,4-dihydro-2H,15′H-spiro[naphthalene-1,22′-[20]oxa[13]thia[1,14]diazatetracyclo [14.7.2.0~3,6~.0~19,24~]pentacosa[16,18,24]trien]-15′-one 13′,13′-dioxide] | 2140
N#C[C@]1(O)CCCCCS(=O)(=O)NC(=O)c2ccc3c(c2)N(C[C@@H]2CC[C@H]21)C[C@@]1(CCCc2cc(Cl)ccc21)CO3 [Example 100027, (1S,3′R,6′R,7′S)-6-chloro-7′-hydroxy-15′-oxo-3,4-dihydro-2H-spiro[naphthalene-1,22′-[20]oxa[13]thia[1,14]diazatetracyclo [14.7.2.0~3,6~.0~19,24~]pentacosa[16,18,24]triene]-7′-carbonitrile 13′,13′-dioxide] | 7340
C[C@H]1CC/C=C/[C@@](C)(O)[C@@H]2CC[C@H]2CN2C[C@@]3(CCCc4cc(Cl)ccc43)COc3ccc(cc32)C(=O)NS1(=O)=O [Example 100030, (1S,3′R,6′R,7′R,8′E,12′S)-6-chloro-7′-hydroxy-7′,12′-dimethyl-3,4-dihydro-2H,15′H-spiro[naphthalene-1,22′-[20]oxa[13]thia[1,14]diazatetracyclo [14.7.2.0~3,6~.0~19,24~]pentacosa[8,16,18,24]tetraen]-15′-one 13′,13′-dioxide] | 10400
CC[C@@H]1CC/C=C/[C@@](O)(CO)[C@@H]2CC[C@H]2CN2C[C@@]3(CCCc4cc(Cl)ccc43)COc3ccc(cc32)C(=O)NS1(=O)=O [Example 100034, (1S,3′R,6′R,7′S,8′E,12′R)-6-chloro-12′-ethyl-7′-hydroxy-7′-(hydroxymethyl)-3,4-dihydro-2H,15′H-spiro[naphthalene-1,22′-[20]oxa[13]thia[1,14]diazatetracyclo [14.7.2.0~3,6~.0~19,24~]pentacosa[8,16,18,24]tetraen]-15′-one 13′,13′-dioxide] | 877
CO[C@]1(CO)/C=C/C[C@H](C)[C@@H](C)S(=O)(=O)NC(=O)c2ccc3c(c2)N(C[C@@H]2CC[C@H]21)C[C@@]1(CCCc2cc(Cl)ccc21)CO3 [Example 100312, (1S,3′R,6′R,7′R,8′E,11′S,12′R)-6-chloro-7′-(hydroxymethyl)-7′-methoxy-11′,12′-dimethyl-3,4-dihydro-2H,15′H-spiro[naphthalene-1,22′-[20]oxa[13]thia[1,14]diazatetracyclo [14.7.2.0~3,6~.0~19,24~]pentacosa[8,16,18,24]tetraen]-15′-one 13′,13′-dioxide] | 88

Same assay, conditions: read-out: Mcl-1 HTRF IC50

Structure (SMILES) | IC50 [pM]
C[C@H]1CCCC[C@](C)(O)[C@@H]2CC[C@H]2CN2C[C@@]3(CCCc4cc(Cl)ccc43)COc3ccc(cc32)C(=O)NS1(=O)=O [Example 100031, (1S,3′R,6′R,7′S,12′S)-6-chloro-7′-hydroxy-7′,12′-dimethyl-3,4-dihydro-2H,15′H-spiro[naphthalene-1,22′-[20]oxa[13]thia[1,14]diazatetracyclo [14.7.2.0~3,6~.0~19,24~]pentacosa[16,18,24]trien]-15′-one 13′,13′-dioxide] | 7450
